Test results reported in patent US8426587B2, “Haloallylamine inhibitors of SSAO/VAP-1 and uses therefor” (Pharmaxis Ltd., priority 2007, dated 2013).
Structures can show the parent of a compound that is named as a salt. Where two headings read alike, the source gives them in different places.

Tests used:
[1] = target: T1, Mouse SSAO/VAP-1 (Mus musculus, UniProt O70423); experiment: Inhibition of amine oxidase activity of mouse SSAO/VAP-1 (3T3-L1 adipocytes, Amplex Red); type: biochemical; settings: 3T3-L1 adipocyte SSAO, 30 min at 37° C. preincubation, 40 μM benzylamine
T1 construct: Adipocytes were used as an SSAO source either as adherent cells or as a homogenate; endogenous in cells; host or cells: 3T3-L1 murine fibroblasts (ATCC) differentiated into adipocytes
T1 sequence (O70423 1-765): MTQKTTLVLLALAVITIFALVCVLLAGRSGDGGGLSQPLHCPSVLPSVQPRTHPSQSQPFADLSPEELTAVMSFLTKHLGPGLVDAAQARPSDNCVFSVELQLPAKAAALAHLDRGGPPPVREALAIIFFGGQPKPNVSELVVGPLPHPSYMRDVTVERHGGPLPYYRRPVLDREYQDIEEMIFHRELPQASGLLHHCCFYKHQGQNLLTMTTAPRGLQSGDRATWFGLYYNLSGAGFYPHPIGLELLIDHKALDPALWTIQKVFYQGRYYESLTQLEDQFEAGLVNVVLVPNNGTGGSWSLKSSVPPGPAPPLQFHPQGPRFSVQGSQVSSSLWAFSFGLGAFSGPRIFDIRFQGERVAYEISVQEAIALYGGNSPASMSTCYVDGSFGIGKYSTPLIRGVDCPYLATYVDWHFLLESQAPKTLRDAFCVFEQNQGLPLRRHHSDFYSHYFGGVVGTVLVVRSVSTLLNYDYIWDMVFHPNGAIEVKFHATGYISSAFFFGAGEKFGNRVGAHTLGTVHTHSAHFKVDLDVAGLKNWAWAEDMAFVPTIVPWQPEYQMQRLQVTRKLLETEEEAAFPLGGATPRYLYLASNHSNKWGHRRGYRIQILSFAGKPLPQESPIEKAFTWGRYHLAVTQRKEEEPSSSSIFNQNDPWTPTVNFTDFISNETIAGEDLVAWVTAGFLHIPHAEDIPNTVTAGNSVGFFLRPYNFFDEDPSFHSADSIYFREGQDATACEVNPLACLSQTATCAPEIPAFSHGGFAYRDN
Description: 3T3-L1 Murine fibroblasts were purchased from the American Type Culture Collection (ATCC, Rockville, Md.). Dulbecco's Modified Eagle Medium (DMEM) and fetal calf serum (FCS), antibiotics and Amplex® Red were obtained from Invitrogen (Carlsbad, Calif.). Tissue culture plastics and black clear-bottom 96 well plates were from BD Falcon (Bedford, Mass.). Bicinchoninic acid (BCA) reagent was from Pierce (Rockford, Ill.). All other materials were obtained from Sigma (St. Louis, Mo.).
3T3-L1 Fibroblasts were cultured in DMEM supplemented with 10% heat-inactivated FCS, 2 mM L-glutamine, 100 U/L penicillin and 100 μg/L streptomycin at 37° C. in 5% CO2. For differentiation into adipocytes, fibroblasts were cultured in DMEM with FCS for 1 or 2 days postconfluence, after which the cells were cultured for 3 days in DMEM containing 10% FCS, 350 nM insulin, 0.5 mM 3-isobutyl-1-methylxanthine, 250 nM dexamethasone, and 400 nM biotin and for 3 days in DMEM containing 10% FCS and 350 nM insulin. After differentiation, adipocytes were maintained in DMEM supplemented with 10% FCS. Adipocytes were used for experiments 8 to 11 days after the onset of differentiation, and the medium was renewed 2 or 3 days prior to each experiment. For culturing in black clear-bottom 96-well plates, cells were seeded at a 1:1 cell surface ratio, and differentiation was initiated 4 days postseeding. Cells were used between days 6-12 post-differentiation and between passages 7 and 20. Adipocytes were used as an SSAO source either as adherent cells or as a homogenate.
To prepare homogenate, 10 cm dishes of adipocytes were washed with HES buffer (20 mM HEPES, 1 mM EDTA, 250 mM sucrose, pH 7.4) and scraped in HES buffer containing 10 μg/mL leupeptin, 10 μM pepstatin and 1 mM PMSF. Cells were lysed by passage through a 23 G needle followed by passage through a 27 G needle. The lysate was spun at 500 g for 5 min and fat was removed. Protein concentration of the supernatant was measured using a BCA assay according to the manufacturer's instructions. The homogenate was stored at −80° C. until needed.
(§1) To measure the SSAO activity, adipocyte homogenate (0.5 mg/mL) or adipocytes (adhering cells) containing 0.5 mM pargyline, or purified human SSAO was incubated in 0.1 M sodium phosphate buffer pH 7.4 with varying concentrations of test compounds for 30 min at 37° C. The homogenate was then incubated at 37° C. with 60 μM Amplex® Red, 0.75 U/mL HRP and 40 μM benzylamine (mouse SSAO) or 300 μM benzylamine (human SSAO) and the formation of resorufin was measured (excitation range 530-560 nm and emission at 590 nm) every 10 min in either a Tecan Infinite 200 or a BMG plate reader. The IC50 values were estimated using Graphpad Prism software. The IC50 is an estimation of the concentration of the test compound to inhibit the amine oxidase activity of SSAO/VAP-1 by 50%. The IC50 values of certain invention compounds are included in Table 1.

[2] = target: T2, Human SSAO/VAP-1 (Homo sapiens, UniProt Q16853); experiment: Inhibition of amine oxidase activity of purified human SSAO/VAP-1 (Amplex Red); type: biochemical; settings: purified human SSAO, 30 min at 37° C. preincubation, 300 μM benzylamine
T2 sequence (Q16853 1-763): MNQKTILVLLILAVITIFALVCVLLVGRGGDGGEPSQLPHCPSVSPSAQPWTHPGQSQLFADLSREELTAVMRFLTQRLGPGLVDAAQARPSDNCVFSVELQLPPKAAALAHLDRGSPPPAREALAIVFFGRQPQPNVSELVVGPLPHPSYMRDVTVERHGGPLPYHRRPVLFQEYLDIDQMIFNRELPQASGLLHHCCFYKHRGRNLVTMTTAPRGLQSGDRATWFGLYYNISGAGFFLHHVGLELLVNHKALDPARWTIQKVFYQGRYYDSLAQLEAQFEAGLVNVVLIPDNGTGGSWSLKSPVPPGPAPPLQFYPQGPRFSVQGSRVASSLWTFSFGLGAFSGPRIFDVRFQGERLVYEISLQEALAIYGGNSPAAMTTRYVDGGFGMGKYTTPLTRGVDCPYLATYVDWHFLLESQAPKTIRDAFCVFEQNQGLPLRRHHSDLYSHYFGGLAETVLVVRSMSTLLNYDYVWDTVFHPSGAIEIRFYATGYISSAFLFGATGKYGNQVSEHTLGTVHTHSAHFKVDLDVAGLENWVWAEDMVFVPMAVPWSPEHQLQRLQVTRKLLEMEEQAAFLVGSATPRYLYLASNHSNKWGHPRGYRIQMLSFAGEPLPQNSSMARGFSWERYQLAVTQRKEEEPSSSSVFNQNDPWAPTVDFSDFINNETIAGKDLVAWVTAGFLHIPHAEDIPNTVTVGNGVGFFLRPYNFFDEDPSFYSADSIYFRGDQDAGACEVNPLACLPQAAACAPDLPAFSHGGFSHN
Protocol: as §1

[3] = target: T3, Human MAO-B (Homo sapiens, UniProt P27338); experiment: Inhibition of recombinant MAO-B (Amplex Red); type: biochemical; settings: 30 min at 37° C. preincubation, 50 μM benzylamine
T3 sequence (P27338 1-520): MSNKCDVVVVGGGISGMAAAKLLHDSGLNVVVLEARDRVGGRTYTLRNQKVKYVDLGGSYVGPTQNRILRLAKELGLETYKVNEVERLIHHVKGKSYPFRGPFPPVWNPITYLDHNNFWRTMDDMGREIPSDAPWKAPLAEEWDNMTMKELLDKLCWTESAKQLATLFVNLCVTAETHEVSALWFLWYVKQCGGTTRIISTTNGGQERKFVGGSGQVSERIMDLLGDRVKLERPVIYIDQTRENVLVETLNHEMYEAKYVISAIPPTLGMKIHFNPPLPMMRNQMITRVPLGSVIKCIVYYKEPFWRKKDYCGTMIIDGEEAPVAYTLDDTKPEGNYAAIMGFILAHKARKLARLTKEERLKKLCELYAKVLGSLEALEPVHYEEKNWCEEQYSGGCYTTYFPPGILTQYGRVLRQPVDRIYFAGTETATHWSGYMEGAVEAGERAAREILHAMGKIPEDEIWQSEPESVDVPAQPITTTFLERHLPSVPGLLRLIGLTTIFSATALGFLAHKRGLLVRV
Protocol: Recombinant MAO-B was incubated in 0.1 M sodium phosphate buffer pH 7.4 with varying concentration of test compounds for 30 min at 37° C. The homogenate/protein was then incubated at 37° C. with […] Amplex® Red, 0.75 U/ml HRP and 40 μM benzylamine (mouse SSAO), 300 μM benzylamine (human SSAO), 100 μM tyramine (MAO-A) or 50 μM benzylamine (MAO-B) and the formation of resorufin was measured (excitation range 530-560 nm and emission at 590 nm) every 5 min in either a Tecan Infinite 200 or a BMG Fluorostar Optima platereader. IC50 were estimated using Graphpad Prism software.

[4] = target: T4, SSAO/VAP-1 (Mus musculus, UniProt O70423); experiment: In vivo inhibition of SSAO/VAP-1 activity in mouse genital fat; parameters: species or system BALB/C mice; settings: ip
T4 construct: the genital fat was excised and frozen; The tissue was homogenized; from tissue; host or cells: genital fat of BALB/C mice
T4 sequence (O70423 1-765): T1 sequence (O70423 1-765)
Protocol: In vivo inhibition was assessed in mouse genital fat, a tissue with high SSAO/VAP-1 expression. 10 BALB/C mice (5 males and 5 females) were administered 0 mg/kg, 10 mg/kg, 30 mg/kg or 100 mg/kg SSAO/VAP-1 inhibitor by intraperitoneal injection. Two hours after administration the mice were sacrificed and the genital fat was excised and frozen. The tissue was homogenized in 0.01 M sodium phosphate buffer pH 7.4 (10 mL/g) and used to measure SSAO activity using Amplex® Red. ED50 was estimated Using Graphpad Prism software.

[5] = read-out: Female Mice ED50 [ip]
[6] = female BALB/C mice, intraperitoneal, genital fat SSAO activity two hours after administration, read-out: Female Mice ED50 [ip]
[7] = male BALB/C mice, intraperitoneal, genital fat SSAO activity two hours after administration, read-out: Male Mice ED50 [ip]

| IC50 [1] [µM] | IC50 [2] [nM] | IC50 [3] [nM] | ED50 [4, 6] [mg/kg] | ED50 [4, 7] [mg/kg] | SMILES | ED50 [4, 5] [mg/kg] | ED50 ([4]; read-out: Male Mice ED50 [ip]) [mg/kg] |
| --- | --- | --- | --- | --- | --- | --- | --- |
| < 10 | < 1000 | < 1000 |  |  | NC/C=C(/F)COc1ccc([N+](=O)[O-])cc1 [(E)-3-Fluoro-4-(4-nitrophenoxy)but-2-en-1-amine hydrochloride] |  |  |
| < 10 | < 1000 | < 1000 |  |  | NC/C=C(/F)COc1ccccc1 [(E)-3-fluoro-4-phenoxybut-2-en-1-amine hydrochloride] |  |  |
|  |  |  |  |  | C[C@@H](NC(=O)c1ccc(OC/C(F)=C\CN)cc1)c1ccccc1.Cl [R-(E)-4-(4-Amino-2-fluorobut-2-enyloxy)-N-(1-phenylethyl)benzamide hydrochloride] | < 150 | < 50 |
| < 100 | < 1000 | < 100000 |  |  | CC(C)N(C(=O)c1ccc(OC/C(F)=C\CN)cc1)C(C)C [(E)-4-(4-Amino-2-fluorobut-2-enyloxy)-N,N-diisopropylbenzamide hydrochloride] |  |  |
|  |  |  | < 150 | < 150 | CC(C)S(=O)(=O)c1ccc(OC/C(F)=C\CN)cc1.Cl [(E)-3-Fluoro-4-(4-(isopropylsulfonyl)phenoxy)but-2-en-1-amine hydrochloride] |  |  |
| < 10 | < 1000 | < 1000 |  |  | NC/C=C(/F)COc1ccc(Cl)cc1Cl [(E)-4-(2,4-Dichlorophenoxy)-3-fluorobut-2-en-1-amine hydrochloride] |  |  |
| < 10 | < 1000 | < 10000 |  |  | NC/C=C(/F)COc1ccc(S(=O)(=O)N2CCOCC2)cc1 [(E)-3-Fluoro-4-(4-(morpholinosulfonyl)phenoxy)but-2-en-1-amine hydrochloride] |  |  |
| < 1 | < 10000 |  |  |  | NC/C=C(\Cl)Cc1cc(F)cc(F)c1 [(Z)-3-Chloro-4-(3,5-difluorophenyl)but-2-en-1-amine hydrochloride, reference compound] |  |  |
| < 10 | < 10000 |  |  |  | NC/C=C(\Cl)CCc1ccccc1 [(Z)-3-Chloro-5-phenylpent-2-en-1-amine hydrochloride, reference compound] |  |  |
| < 100 | < 1000 | < 1000 |  |  | NC/C=C(/F)COc1cccc(C(F)(F)F)c1 [(E)-3-Fluoro-4-(3-(trifluoromethyl)phenoxy)but-2-en-1-amine hydrochloride] |  |  |
|  |  |  | < 50 | < 50 | Cl.NC/C=C(/F)COc1ccc(C(=O)NC2CCCC2)cc1 [(E)-4-(4-Amino-2-fluorobut-2-enyloxy)-N-cyclopentylbenzamide hydrochloride] |  |  |
|  |  |  |  |  | C[C@H](NC(=O)c1ccc(OC/C(F)=C\CN)cc1)c1ccccc1.Cl [S-(E)-4-(4-Amino-2-fluorobut-2-enyloxy)-N-(1-phenylethyl)benzamide hydrochloride] | < 50 | < 50 |
|  |  |  | < 300 | < 50 | Cl.NC/C=C(/F)COc1ccc(S(=O)(=O)Cc2ccccc2)cc1 [(E)-4-(4-(Benzylsulfonyl)phenoxy)-3-fluorobut-2-en-1-amine hydrochloride] |  |  |
| < 1 | < 1000 | < 1000 |  |  | NC/C=C(/F)COc1ccc(C(=O)NCc2ccccc2)cc1 [(E)-4-(4-Amino-2-fluorobut-2-enyloxy)-N-benzylbenzamide hydrochloride] |  |  |
